Laboratory results as given in the supplement of paper PMC10307832.

Experiments:
Experiment in all cases: relative viability (nuclei count vs DMSO), 5 days (fraction); higher = more cells survive
[1] = compound: CC1=C(C(=NN1)C)CC2=C(C3=C(S2)N(C(=O)N(C3=O)C)CC(C)C)C(=O)N4C[C@@H](CO4)O + Cc1cc(Nc2cc(N3CCN(C)CC3)nc(Sc3ccc(NC(=O)C4CC4)cc3)n2)n[nH]1 [Tozasertib] (partner 0.1 µM)
Method in brief: (§1)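 Five library-drug doses in √10 steps were combined with a fixed anchor-drug dose, or a single drug was given alone, by pin tool to lung cancer cell lines in 1536-well plates the day after seeding. Nuclei were stained and counted after 5 days. Relative viability is the nuclei count in treated wells over that in vehicle wells, taken as the median of duplicate plates.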

IDH-C35 + Palbociclib = compound: Cc1ccccc1C(C(=O)NC1CCCCC1)N(C(=O)Cn1ccnc1C)c1cccc(F)c1 [IDH-C35] + CC(=O)c1c(C)c2cnc(Nc3ccc(N4CCNCC4)cn3)nc2n(C2CCCC2)c1=O [Palbociclib] (partner 0.5 µM)
Method in brief: as §1

IDH-C35 + Navitoclax = compound: Cc1ccccc1C(C(=O)NC1CCCCC1)N(C(=O)Cn1ccnc1C)c1cccc(F)c1 [IDH-C35] + CC1(C)CCC(c2ccc(Cl)cc2)=C(CN2CCN(c3ccc(C(=O)NS(=O)(=O)c4ccc(N[C@H](CCN5CCOCC5)CSc5ccccc5)c(S(=O)(=O)C(F)(F)F)c4)cc3)CC2)C1 [Navitoclax] (partner 0.5 µM)
Method in brief: as §1

IDH-C35 + Linsitinib = compound: Cc1ccccc1C(C(=O)NC1CCCCC1)N(C(=O)Cn1ccnc1C)c1cccc(F)c1 [IDH-C35] + C[C@]1(O)C[C@@H](c2nc(-c3ccc4ccc(-c5ccccc5)nc4c3)c3c(N)nccn32)C1 [Linsitinib] (partner 1 µM)
Method in brief: as §1

Cell Line | relative viability ([1]; first compound 0.0025 µM) | relative viability ([1]; first compound 0.007906 µM) | relative viability ([1]; first compound 0.025 µM) | relative viability ([1]; first compound 0.07906 µM) | relative viability ([1]; first compound 0.25 µM) | relative viability (IDH-C35 + Palbociclib; first compound 0.08 µM) | relative viability (IDH-C35 + Palbociclib; first compound 0.253 µM) | relative viability (IDH-C35 + Palbociclib; first compound 0.8 µM) | relative viability (IDH-C35 + Palbociclib; first compound 2.53 µM) | relative viability (IDH-C35 + Palbociclib; first compound 8 µM) | relative viability (IDH-C35 + Navitoclax; first compound 0.08 µM) | relative viability (IDH-C35 + Navitoclax; first compound 0.253 µM) | relative viability (IDH-C35 + Navitoclax; first compound 0.8 µM) | relative viability (IDH-C35 + Navitoclax; first compound 2.53 µM) | relative viability (IDH-C35 + Navitoclax; first compound 8 µM) | relative viability (IDH-C35 + Linsitinib; first compound 0.08 µM) | relative viability (IDH-C35 + Linsitinib; first compound 0.253 µM) | relative viability (IDH-C35 + Linsitinib; first compound 0.8 µM) | relative viability (IDH-C35 + Linsitinib; first compound 2.53 µM) | relative viability (IDH-C35 + Linsitinib; first compound 8 µM)
HARA | 0.129 | 0.125 | 0.105 | 0.111 | 0.112 | 0.222 | 0.298 | 0.268 | 0.311 | 0.234 | 1.08 | 1.14 | 1.14 | 1.12 | 1.14 | 0.993 | 0.933 | 1.04 | 0.988 | 0.907
NCI-H838 | 0.268 | 0.25 | 0.212 | 0.22 | 0.242 | 0.24 | 0.223 | 0.229 | 0.22 | 0.211 | 1.15 | 1.11 | 1.19 | 1.15 | 1.11 | 1.08 | 0.959 | 0.949 | 1.04 | 0.943
NCI-H1755 | 0.71 | 0.571 | 0.543 | 0.486 | 0.593 | 0.463 | 0.412 | 0.438 | 0.466 | 0.401 | 0.981 | 1.01 | 0.973 | 0.976 | 0.96 | 0.952 | 0.946 | 0.984 | 1.02 | 0.962
HCC-78 | 0.415 | 0.406 | 0.544 | 0.453 | 0.284 | 0.462 | 0.437 | 0.439 | 0.494 | 0.553 | 0.86 | 0.762 | 0.763 | 0.62 | 0.656 | 0.54 | 0.495 | 0.497 | 0.382 | 0.453
IA-LM | – | – | – | – | – | – | – | – | – | – | 0.711 | 0.838 | 0.798 | 0.742 | 0.707 | 0.876 | 0.776 | 0.628 | 0.621 | 0.589
NCI-H322M | 0.532 | 0.485 | 0.454 | 0.495 | 0.461 | 0.523 | 0.48 | 0.493 | 0.493 | 0.49 | 1.34 | 1.12 | 1.23 | 1.15 | 1.2 | 0.965 | 0.878 | 0.81 | 0.95 | 0.794
NCI-H650 | 0.77 | 0.747 | 0.702 | 0.692 | 0.739 | 0.311 | 0.343 | 0.339 | – | 0.283 | – | – | – | – | – | 1.09 | 1.05 | 0.799 | – | 0.771
NCI-H1792 | – | – | – | – | – | 0.711 | 0.609 | 0.646 | 0.679 | 0.673 | 0.637 | 0.593 | 0.619 | 0.621 | 0.646 | 0.522 | 0.508 | 0.486 | 0.555 | 0.66
ChaGo-K-1 | 0.232 | 0.214 | 0.235 | 0.206 | 0.228 | 0.921 | 0.907 | 0.92 | 0.898 | 0.983 | 0.62 | 0.966 | 1.09 | 0.73 | 1.17 | – | – | – | – | –
NCI-H522 | 0.516 | 0.537 | 0.545 | 0.419 | 0.418 | 1.07 | 1.07 | 1.01 | 0.944 | 0.99 | – | – | – | – | – | – | – | – | – | –
NCI-H1299 | – | – | – | – | – | – | – | – | – | – | 1.02 | 1.08 | 1.02 | 1.05 | 1.03 | 1.11 | 0.969 | 0.976 | 1 | 0.957
NCI-H1650 | 0.482 | 0.406 | 0.386 | 0.503 | 0.446 | 0.381 | 0.329 | 0.355 | 0.422 | 0.4 | 1.23 | 1.21 | 1.19 | 1.24 | 1.17 | – | – | – | – | –
NCI-H1648 | 0.462 | 0.542 | 0.754 | 0.37 | 0.458 | – | 0.271 | 0.322 | 0.246 | 0.285 | – | – | – | – | – | – | – | – | – | –
NCI-H596 | 0.976 | 1.07 | 1.04 | 0.94 | 0.889 | – | – | – | – | – | 1.1 | 1 | 0.925 | 0.867 | 0.962 | 1.14 | 1.14 | 0.986 | 1.14 | 1.13
NCI-H2342 | 0.599 | 0.421 | 0.481 | 0.558 | 0.552 | 0.578 | 0.535 | 0.475 | 0.526 | 0.662 | – | – | – | – | – | – | – | – | – | –
SW 900 | 0.57 | 0.558 | 0.536 | 0.524 | 0.591 | 0.487 | 0.568 | – | 0.522 | 0.506 | – | – | – | – | – | – | – | – | – | –
A549 | – | – | – | – | – | – | – | – | – | – | 1.19 | 1.16 | 1.17 | 1.22 | 1.15 | 0.624 | 0.55 | 0.504 | 0.502 | 0.585
NCI-H2170 | 0.67 | 0.734 | 0.736 | 0.599 | 0.8 | 0.382 | 0.377 | 0.425 | 0.385 | 0.379 | 0.626 | 0.535 | 0.595 | 0.479 | 0.627 | – | – | – | – | –
NCI-H661 | 0.344 | 0.372 | 0.354 | 0.341 | 0.353 | 0.433 | 0.407 | 0.392 | 0.41 | 0.384 | – | – | – | – | – | 0.625 | 0.54 | 0.51 | 0.54 | 0.644
NCI-H1563 | – | – | – | – | – | – | – | – | – | – | – | – | – | – | – | 1.15 | 1.3 | 1.15 | 1.2 | 1.16
ABC-1 | 0.197 | 0.196 | 0.216 | 0.19 | 0.255 | 0.765 | 0.819 | 0.491 | 0.785 | 0.824 | – | – | – | – | – | 0.898 | 0.856 | 0.913 | 0.767 | 0.746
LCLC-103H | 0.544 | 0.564 | 0.505 | 0.551 | 0.543 | 0.498 | 0.483 | 0.532 | 0.518 | 0.484 | – | – | – | – | – | 1.21 | 1.01 | 0.98 | 1.13 | 1.07
